In patent US10000456B2, “Polycyclic compounds as lysophosphatidic acid receptor antagonists” (AMIRA PHARMACEUTICALS, INC., priority 2009, dated 2018) one finds IC50 data, which are given here for one compound.

The assay has as its target T1, human LPA1 (Homo sapiens, UniProt Q92633).
T1 construct: the full-length cDNA for human LPA1 was obtained by PCR of the reverse transcription reaction; expressed in transfected cells
Kind of assay: LPA1 calcium flux assay (HLPA1 Ca Flux). Particulars: CHO cells expressing human LPA1, stimulated with 10 nM LPA. Type of assay: cell-based. Here is the method: A 1.1 kb cDNA encoding the human LPA1 receptor was cloned from human lung. Human lung RNA (Clontech Laboratories, Inc. USA) was reverse transcribed using the RETROSCRIPT® kit (Ambion, Inc.) and the full-length cDNA for human LPA1 was obtained by PCR of the reverse transcription reaction. The nucleotide sequence of the cloned human LPA1 was determined by sequencing and confirmed to be identical to the published human LPA1 sequence (An et al., Biochem. Biophys. Res. Commun., 231:619 (1997). The cDNA was cloned into the pcDNA5/FRT expression plasmid and transfected in CHO cells using Lipofectamine 2000 (Invitrogen Corp., USA). Clones stably expressing human LPA1 were selected using hygromycin and identified as cells that show Ca-influx in response to LPA.
Human LPA1 or LPA3 expressing CHO cells are seeded at 20,000-45,000 cells per well in a 96-well poly-D-lysine coated plate one or two days before the assay. Prior to the assay, the cells are washed once with PBS and then cultured in serum-free media overnight. […] Cells are the stimulated by the addition of 10 nM LPA and intracellular Ca^2+ measured using the FLEXSTATION® 3 (Molecular Devices). IC50s are determined using GraphPad prism analysis of drug titration curves.

Each structure is given as a SMILES string.

T1 sequence (Q92633 whole entry): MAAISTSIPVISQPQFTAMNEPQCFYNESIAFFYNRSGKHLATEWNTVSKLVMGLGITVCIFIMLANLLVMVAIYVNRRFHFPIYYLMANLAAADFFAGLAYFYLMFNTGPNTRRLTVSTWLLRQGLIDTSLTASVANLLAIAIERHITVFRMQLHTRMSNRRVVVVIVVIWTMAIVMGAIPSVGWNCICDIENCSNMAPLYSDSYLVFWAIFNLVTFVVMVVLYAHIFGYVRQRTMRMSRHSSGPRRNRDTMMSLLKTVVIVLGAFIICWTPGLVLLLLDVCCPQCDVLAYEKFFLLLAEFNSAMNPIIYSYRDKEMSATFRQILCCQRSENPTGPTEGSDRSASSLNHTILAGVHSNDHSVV

The term IC50 denotes the midpoint of a concentration-inhibition curve. For the compound `Cc1noc(-c2ccc(-c3ccc(C4(C(=O)O)CC4)cc3)cc2)c1Nc1cccc(-c2cccc(C(F)(F)F)c2Cl)n1` [Compound 84, 1-(4′-{4-[6-(2-Chloro-3-trifluoromethyl-phenyl)-pyridin-2-ylamino]-3-methyl-isoxazol-5-yl}-biphenyl-4-yl)-cyclopropanecarboxylic acid], the IC50 lay within 300 to 1000 nM.
